Laboratory results from US20250268897A1, “USE OF HETEROCYCLIC COMPOUND IN TREATING DISEASES RELATED TO KINASE DRUG-RESISTANT MUTATION AND METHOD THEREFOR” (Sichuan Kelun-Biotech Biopharmaceutical Co., Ltd., priority 2021, published 2025).
Values belong to the compound of their own block, whether it stands above or below them.

Experiments:
RET-G810R enzyme = RET-G810R enzyme (Homo sapiens (Human), UniProt P07949, G810R); test: RET inhibition experiment, HTRF KinEASE-TK kit, RET-G810R; assay type: biochemical; conditions: for IC50: Table 2
Chain of RET-G810R enzyme (P07949 29-1114 G810R): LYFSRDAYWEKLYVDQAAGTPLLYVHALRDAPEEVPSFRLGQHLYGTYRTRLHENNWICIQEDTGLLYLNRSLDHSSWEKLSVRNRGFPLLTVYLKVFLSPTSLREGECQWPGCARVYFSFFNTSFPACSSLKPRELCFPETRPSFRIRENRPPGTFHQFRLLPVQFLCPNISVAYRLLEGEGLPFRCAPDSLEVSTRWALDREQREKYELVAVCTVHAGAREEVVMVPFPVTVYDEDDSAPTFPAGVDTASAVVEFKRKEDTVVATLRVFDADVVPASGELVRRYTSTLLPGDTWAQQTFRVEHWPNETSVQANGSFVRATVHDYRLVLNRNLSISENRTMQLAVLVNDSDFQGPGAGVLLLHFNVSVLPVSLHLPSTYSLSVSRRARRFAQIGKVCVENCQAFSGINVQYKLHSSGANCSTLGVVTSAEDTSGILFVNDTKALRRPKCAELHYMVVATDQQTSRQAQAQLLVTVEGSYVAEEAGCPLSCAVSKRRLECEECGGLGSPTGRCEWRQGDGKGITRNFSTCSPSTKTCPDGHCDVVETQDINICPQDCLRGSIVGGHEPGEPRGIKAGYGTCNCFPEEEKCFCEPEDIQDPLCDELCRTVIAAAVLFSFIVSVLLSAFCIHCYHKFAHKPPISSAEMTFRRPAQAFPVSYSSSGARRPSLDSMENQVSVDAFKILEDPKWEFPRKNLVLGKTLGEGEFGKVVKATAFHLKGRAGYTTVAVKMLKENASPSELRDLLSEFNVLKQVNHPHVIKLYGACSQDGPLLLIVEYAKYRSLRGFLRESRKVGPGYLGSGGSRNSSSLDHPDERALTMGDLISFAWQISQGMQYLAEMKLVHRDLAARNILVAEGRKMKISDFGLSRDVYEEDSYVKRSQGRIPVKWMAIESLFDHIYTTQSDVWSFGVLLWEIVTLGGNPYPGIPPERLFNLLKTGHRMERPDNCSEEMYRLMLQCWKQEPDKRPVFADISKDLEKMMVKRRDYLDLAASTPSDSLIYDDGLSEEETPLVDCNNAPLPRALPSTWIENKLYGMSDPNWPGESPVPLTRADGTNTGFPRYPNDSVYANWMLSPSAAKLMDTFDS

RET-G810S enzyme = RET-G810S enzyme (Homo sapiens (Human), UniProt P07949, G810S); test: RET inhibition experiment, HTRF KinEASE-TK kit, RET-G810S; assay type: biochemical; conditions: for inhibition at 0.3 µM / Inhibition rate on RET-G810S (%): compound concentration 300 nM; for inhibition at 0.3 µM: read-out: Inhibition rate on RET-G810S (%); for IC50: Table 4
Chain of RET-G810S enzyme (P07949 29-1114 G810S): as the sequence (P07949 29-1114 G810R) above, with R782S counted along it

[1] = tested on: Ba/F3 KIF5B-RET^G810R subcutaneous tumour; test: In vivo efficacy in BALB/c Nude mouse model with Ba/F3 KIF5B-RET^G810R subcutaneous tumour; conditions: 30 mg/kg, PO, BID × 12; for VP-1 (mm^3, mean ± SEM): tumour volume one day before administration: baseline of the group
RET-G810C enzyme = RET-G810C enzyme (Homo sapiens (Human), UniProt P07949, G810C); test: RET inhibition experiment, HTRF KinEASE-TK kit, RET-G810C; assay type: biochemical; conditions: for IC50: Table 6
Chain of RET-G810C enzyme (P07949 29-1114 G810C): as the sequence (P07949 29-1114 G810R) above, with R782C counted along it

- Inhibition rate on RET-G810R (%) (RET-G810R enzyme; compound concentration 300 nM): 70.41 ± 4.57%
Structure (SMILES): Cc1ccc(CN2C3CC2CN(c2ccc(-c4nc(C)cc(Nc5cc(C)[nH]n5)n4)cn2)C3)cc1 [Compound 2]

Structure (SMILES): Cc1cc(Nc2cc(C)[nH]n2)nc(-c2ccc(N3CC4CC(C3)N4Cc3ccc(-n4nccc4C4CC4)cc3)nc2)n1 [Compound 14, 2-(6-(6-(4-(5-cyclopropyl-1H-pyrazol-1-yl)benzyl)-3,6-diazabicyclo [3.1.1]heptan-3-yl)pyridin-3-yl)-6-methyl-N-(5-methyl-1H-pyrazol-3-yl) pyrimidin-4-amine]
- inhibition at 0.3 µM (RET-G810S enzyme): 92.56 ± 0.08%

- Inhibition rate on RET-G810S (%) (RET-G810S enzyme): 90.64 ± 0.68%
Structure (SMILES): Cc1cc(Nc2cc(C)[nH]n2)nc(-c2ccc(N3CC4CC(C3)N4Cc3ccc(-n4ccc(F)n4)cc3)nc2)n1 [Compound 17]

Structure (SMILES): Cc1cc(Nc2cc(C)[nH]n2)nc(-c2ccc(N3CC4CC(C3)N4Cc3ccc(-n4ccc(C5CC5)n4)cc3)nc2)n1 [Compound 15, 2-(6-(6-(4-(3-cyclopropyl-1H-pyrazol-1-yl)benzyl)-3,6-diazabicyclo [3.1.1]heptan-3-yl)pyridin-3-yl)-6-methyl-N-(5-methyl-1H-pyrazol-3-yl) pyrimidin-4-amine]
- inhibition at 0.3 µM (RET-G810S enzyme): 97.22 ± 0.39%

Structure (SMILES): CO[C@]1(C(=O)N[C@@H](C)c2ccc(-n3cc(F)cn3)nc2)CC[C@H](c2nc(C)cc(Nc3cc(C)[nH]n3)n2)CC1 [BLU-667, Pralsetinib]
- TGI (%) tumour growth inhibition rate [1]: 29.78%
- VP12 (mm^3, mean ± SEM): tumour volume on Day 12 of administration [1]: 552.89 ± 29.7 mm^3
- VP-1 (mm^3, mean ± SEM): tumour volume one day before administration [1]: 101.82 ± 5.93 mm^3

Structure (SMILES): Cc1cc(Nc2cc(C)[nH]n2)nc(-c2ccc(N3CC4CC(C3)N4Cc3ccc(-c4ccc[nH]4)nc3)nc2)n1 [Compound 21]
- IC50 (RET-G810S enzyme): 6.61 nM
- IC50 (RET-G810C enzyme): 173 nM

- Inhibition rate on RET-G810S (%) (RET-G810S enzyme): 96.67 ± 0.03%
- Inhibition rate on RET-G810C (%) (RET-G810C enzyme; compound concentration 300 nM): 86.86 ± 1.73%
Structure (SMILES): Cc1cc(Nc2cc(C)[nH]n2)nc(-c2ccc(N3CC4CC(C3)N4Cc3ccc(-n4ncc(F)c4C)nc3)nc2)n1 [Compound 20]

Structure (SMILES): Cc1cc(Nc2cc(C)[nH]n2)nc(-c2ccc(N3CC4CC(C3)N4Cc3ccc(-c4ccco4)nc3)nc2)n1 [Compound 29, 2-(6-(6-((6-(furan-2-yl)pyridin-3-yl)methyl)-3,6-diazabicyclo [3.1.1]heptan-3-yl)pyridin-3-yl)-6-methyl-N-(5-methyl-1H-pyrazol-3-yl) pyrimidin-4-amine]
- inhibition at 0.3 µM (RET-G810S enzyme): 93.21 ± 0.91%

- Inhibition rate on RET-G810S (%) (RET-G810S enzyme): 97.83 ± 0.32%
Structure (SMILES): Cc1cc(Nc2cc(C)[nH]n2)nc(-c2ccc(N3CC4CC(C3)N4Cc3ccc(-c4cscn4)nc3)nc2)n1 [Compound 26]

Structure (SMILES): Cc1cc(Nc2cc(C)[nH]n2)nc(-c2ccc(N3CC4CC(C3)N4Cc3ccc(-n4cc(Cl)cn4)nc3)nc2)n1 [Compound 9, 2-(6-(6-((6-(4-chloro-1H-pyrazol-1-yl)pyridin-3-yl)methyl)-3,6-diazabicyclo [3.1.1]heptan-3-yl)pyridin-3-yl)-6-methyl-N-(5-methyl-1H-pyrazol-3-yl) pyrimidin-4-amine]
- inhibition at 0.3 µM (RET-G810R enzyme; compound concentration 300 nM, read-out: Inhibition rate on RET-G810R (%)): 78.6 ± 4.5%
- inhibition at 0.3 µM (RET-G810S enzyme): 97.64 ± 0.19%

Structure (SMILES): Cc1cc(Nc2cc(C)[nH]n2)nc(-c2ccc(N3CC4CC(C3)N4Cc3ccc(-n4nc(F)cc4C)nc3)nc2)n1 [Compound 28, 2-(6-(6-((6-(3-fluoro-5-methyl-1H-pyrazol-1-yl)pyridin-3-yl)methyl)-3,6-diazabicyclo [3.1.1]heptan-3-yl)pyridin-3-yl)-6-methyl-N-(5-methyl-1H-pyrazol-3-yl) pyrimidin-4-amine]
- inhibition at 0.3 µM (RET-G810S enzyme): 90.8 ± 1.24%

Structure (SMILES): Cc1cc(Nc2cc(C)[nH]n2)nc(-c2ccc(N3CC4CC(C3)N4Cc3ccc(-n4cc(F)c(C(C)(C)O)n4)nc3)nc2)n1.O=C(O)/C=C/C(=O)O [Compound 30-A, Fumarate of 2-(4-fluoro-1-(5-((3-(5-(4-methyl-6-((5-methyl-1H-pyrazol-3-yl)amino)pyrimidin-2-yl)pyridin-2-yl)-3,6-diazabicyclo [3.1.1]heptan-6-yl)methyl)pyridin-2-yl)-1H-pyrazol-3-yl) propan-2-ol]
- Inhibition rate on RET-G810S (%) (RET-G810S enzyme): 99.01 ± 0.15%
- IC50 (RET-G810C enzyme): 125 nM

- Inhibition rate on RET-G810R (%) (RET-G810R enzyme; compound concentration 300 nM): 69.44 ± 0.31%
- Inhibition rate on RET-G810S (%) (RET-G810S enzyme): 99.19 ± 0.55%
- Inhibition rate on RET-G810C (%) (RET-G810C enzyme; compound concentration 300 nM): 69.10 ± 5.56%
Structure (SMILES): Cc1cc(Nc2cc(C)[nH]n2)nc(-c2ccc(N3CC4CC(C3)N4Cc3ccc(-n4cc(C)c(C)n4)nc3)nc2)n1 [Compound 12]

- Inhibition rate on RET-G810S (%) (RET-G810S enzyme): 90.87 ± 1.13%
Structure (SMILES): Cc1cc(Nc2cc(C)[nH]n2)nc(-c2ccc(N3CC4CC(C3)N4Cc3ccc(-n4nccc4C4CC4)nc3)nc2)n1 [Compound 11]

Structure (SMILES): Cc1cc(Nc2cc(C)[nH]n2)nc(-c2ccc(N3CC4CC(C3)N4Cc3ccc(-c4ccc(F)[nH]4)nc3)nc2)n1 [Compound 27]
- IC50 (RET-G810S enzyme): 23.1 nM
- Inhibition rate on RET-G810C (%) (RET-G810C enzyme; compound concentration 300 nM): 82.66 ± 2.47%

- Inhibition rate on RET-G810S (%) (RET-G810S enzyme): 83.73 ± 3.16%
Structure (SMILES): Cc1cc(Nc2cc(C)[nH]n2)nc(-c2ccc(N3CC4CC(C3)N4Cc3ccc(-n4ccc(F)n4)nc3)nc2)n1 [Compound 8]

- Inhibition rate on RET-G810S (%) (RET-G810S enzyme): 91.80 ± 0.98%
Structure (SMILES): Cc1cc(Nc2cc(C)[nH]n2)nc(-c2ccc(N3CC4CC(C3)N4Cc3ccc(-n4cc(F)cn4)cc3)nc2)n1 [Compound 7]

- Inhibition rate on RET-G810R (%) (RET-G810R enzyme; compound concentration 300 nM): 72.78 ± 1.58%
- Inhibition rate on RET-G810S (%) (RET-G810S enzyme): 88.46 ± 2.23%
Structure (SMILES): Cc1cc(Nc2cc(C)[nH]n2)nc(-c2ccc(N3CC4CC(C3)N4Cc3ccc(-n4cnc(F)c4)nc3)nc2)n1 [Compound 10]

Structure (SMILES): COc1ccc(CN2C3CC2CN(c2ccc(-c4cc(OCC(C)(C)O)cn5ncc(C#N)c45)cn2)C3)cn1 [LOXO-292, Selpercatinib]
- TGI (%) tumour growth inhibition rate [1]: 2.69%
- VP12 (mm^3, mean ± SEM): tumour volume on Day 12 of administration [1]: 725.55 ± 54.84 mm^3
- VP-1 (mm^3, mean ± SEM): tumour volume one day before administration [1]: 100.47 ± 4.52 mm^3

- Inhibition rate on RET-G810S (%) (RET-G810S enzyme): 97.21 ± 1.01%
Structure (SMILES): Cc1cc(Nc2cc(C)[nH]n2)nc(-c2ccc(N3CC4CC(C3)N4Cc3ccc(-n4cc(F)cn4)nc3)nc2)c1 [Compound 13]

Structure (SMILES): Cc1cc(Nc2cc(C)[nH]n2)nc(-c2ccc(N3CC4CC(C3)N4Cc3ccc(-n4ccc(C(C)(C)O)n4)nc3)nc2)n1 [Compound 24, 2-(1-(5-((3-(5-(4-methyl-6-((5-methyl-1H-pyrazol-3-yl)amino)pyrimidin-2-yl)pyridin-2-yl)-3,6-diazabicyclo [3.1.1]heptan-6-yl)methyl)pyridin-2-yl)-1H-pyrazol-3-yl) propan-2-ol]
- IC50 (RET-G810S enzyme): 57.2 nM

- Inhibition rate on RET-G810R (%) (RET-G810R enzyme; compound concentration 300 nM): 77.16 ± 3.87%
- Inhibition rate on RET-G810S (%) (RET-G810S enzyme): 83.01 ± 1.42%
Structure (SMILES): Cc1cc(Nc2cc(C)[nH]n2)nc(-c2ccc(N3CC4CC(C3)N4Cc3ccc(-n4cccn4)cc3)nc2)n1 [Compound 6]

- Inhibition rate on RET-G810S (%) (RET-G810S enzyme): 85.27 ± 0.37%
Structure (SMILES): Cc1cc(Nc2cc(C)[nH]n2)nc(-c2ccc(N3CC4CC(C3)N4Cc3ccc(-c4ccc(C)o4)nc3)nc2)n1 [Compound 16]

Structure (SMILES): Cc1cc(Nc2cc(C)[nH]n2)nc(-c2ccc(N3CC4CC(C3)N4Cc3cnc(-n4cc(F)cn4)cn3)nc2)n1 [Compound 31, 2-(6-(6-((5-(4-fluoro-1H-pyrazol-1-yl)pyrazin-2-yl)methyl)-3,6-diazabicyclo [3.1.1]hept-3-yl)pyridin-3-yl)-6-methyl-N-(5-methyl-1H-pyrazol-3-yl) pyrimidin-4-amine]
- inhibition at 0.3 µM (RET-G810S enzyme): 99.69 ± 0.14%
- inhibition at 0.3 µM (RET-G810C enzyme; compound concentration 300 nM, read-out: Inhibition rate on RET-G810C (%)): 74.1 ± 1.28%

- Inhibition rate on RET-G810S (%) (RET-G810S enzyme): 80.98 ± 7.32%
- Inhibition rate on RET-G810C (%) (RET-G810C enzyme; compound concentration 300 nM): 82.80 ± 3.66%
Structure (SMILES): Cc1cc(Nc2cc(C)[nH]n2)nc(-c2ccc(N3CC4CC(C3)N4Cc3ccc(-n4nccc4OC4CC4)nc3)nc2)n1 [Compound 19]

- Inhibition rate on RET-G810S (%) (RET-G810S enzyme): 97.26 ± 0.72%
Structure (SMILES): Cc1cc(Nc2cc(C)[nH]n2)nc(-c2ccc(N3CC4CC(C3)N4Cc3ccc(-c4ccn[nH]4)nc3)nc2)n1 [Compound 25]

Structure (SMILES): Cc1cc(Nc2cc(C)[nH]n2)nc(-c2ccc(N3CC4CC(C3)N4Cc3ccc(Cl)cn3)nc2)n1 [Compound 3]
- Inhibition rate on RET-G810R (%) (RET-G810R enzyme; compound concentration 300 nM): 72.49 ± 3.15%

Structure (SMILES): Cc1cc(Nc2cc(C)[nH]n2)nc(-c2ccc(N3CC4CC(C3)N4Cc3ccc(-n4cccn4)nc3)nc2)n1 [Compound 5]
- IC50 (RET-G810R enzyme): 185 nM
- Inhibition rate on RET-G810S (%) (RET-G810S enzyme): 97.89 ± 0.57%

- Inhibition rate on RET-G810C (%) (RET-G810C enzyme; compound concentration 300 nM): 84.26 ± 6.82%
Structure (SMILES): Cc1cc(Nc2cc(C)[nH]n2)nc(-c2ccc(N3CC4CC(C3)N4Cc3ccc(-n4ncc(F)c4C4CC4)nc3)nc2)n1 [Compound 22]

- Inhibition rate on RET-G810R (%) (RET-G810R enzyme; compound concentration 300 nM): 78.98 ± 0.24%
- Inhibition rate on RET-G810S (%) (RET-G810S enzyme): 98.89 ± 0.18%
Structure (SMILES): Cc1cnn(-c2ccc(CN3C4CC3CN(c3ccc(-c5nc(C)cc(Nc6cc(C)[nH]n6)n5)cn3)C4)cn2)c1 [Compound 4]

Structure (SMILES): Cc1cc(Nc2cc(C)[nH]n2)nc(-c2ccc(N3CC4CC(C3)N4Cc3ccc(-n4cc(F)cn4)nc3)nc2)n1 [Compound 18]
- IC50 (RET-G810R enzyme): 132 nM
- IC50 (RET-G810S enzyme): 15.9 nM
- IC50 (RET-G810C enzyme): 36.3 nM
